The structures appear in SMILES notation. Values joined by “and” are separate entries in the source; they are usually repeats but may differ in a detail not shown here. Identical values can stand only once.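 Cultured in 96-well plates, cells were exposed to test compound for 48 hours across five concentrations. GI50 is the concentration that inhibits growth by half. Definition used: TGI = concentration required for complete inhibition of growth.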 A value given as a limit tells only on which side of the number the result lay.

Assay in all cases: inhibition of tumour cell growth, NCI panel, 48 h
The subject of test [1] is HOP-92 NSCLC.
Test [2] relates to MALME-3M melanoma.
The subject of test [3] is RPMI-8226 leukemia.
Test [4] relates to SK-MEL-5 melanoma.
In test [5] the test system is HCT-15 colon.
Test [6] concerns SF-268 CNS.
Test [7] has as its system A549 NSCLC.
Test [8] has as its system COLO 205 colon.
For test [9], the system named is IGROV1 ovarian.
Test [10] has as its system CAKI-1 renal.

Take `Oc1c(C(Nc2cccc3ccccc23)c2ccccc2)ccc2cccnc12` (stereo not given): the GI50 in [1] is 2.95 µM; in test [2], 5.17 µM; in [3] it was 2.36 µM; in test [4], 2.1 µM; in test [5], 3.78 µM; in [6], 3.04 µM. The GI50 in test [7] is 2.95 µM; in [8], 4.17 µM; in [9], 3.79 µM; in test [10], 2.15 µM. Moreover, the TGI is 36.3 µM in test [1]; 25.7 µM in test [2]; above 100 µM in test [3]; 5.99 µM in [4]; 62.1 µM in test [5]; 28.7 µM in test [6]. Further, the TGI in test [7] was above 100 µM; in [8], 17.7 µM; in [9] it was 11 µM; in [10], 6.54 µM.

For the molecule `N#CC(C#N)=Cc1c(-c2ccccc2)[nH]c2ccccc12`, the GI50 is 5.6 µM in [1]; 15.8 µM in test [2]; 0.564 µM in [3]; 1.08 µM in [4]; 0.906 µM in test [5]; 8.81 µM in test [6]. The GI50 in [7] was 4.62 µM; in test [8] it was 1.76 µM; in [9], 0.743 µM; in test [10] it was 5.66 µM. Besides, the TGI is above 100 µM in [1]; above 100 µM in [2]; 4.62 µM in test [3]; 12.8 µM in test [4]; above 47.3 µM in test [5]; above 46.2 µM in test [6]. Moreover, the TGI in test [7] was above 100 µM; in [8], 15 µM; in test [9], 31.9 µM; in [10] it was 48.7 µM.

`Cc1cc(=O)oc2c(CN3CCCCC3)c(O)ccc12`: the TGI in test [1], in [2], in test [3], in test [4], in [5] and in test [6] was above 100 µM in each case. In addition, the TGI in test [7], in test [8], in [9] and in [10] was above 100 µM throughout.

In the case of `CC(=O)[CH-]C(=O)c1ccccc1.CC(=O)[CH-]C(=O)c1ccccc1.COc1cccc([O-])c1[O-].[Ti+4]`, the GI50 was 57.8 µM in test [1]; 33.4 µM in test [2]; 57.1 µM in test [3]; 93.3 µM in test [4]; 50.2 µM in test [5]; 47.6 µM in [6]. Further, the GI50 in test [7] is above 100 µM; in [8] it was 37.9 µM; in test [9], above 100 µM; in test [10] it was above 100 µM. Also, the TGI in test [1], in test [2], in test [3], in [4], in [5] and in [6] was above 100 µM in each case. Besides, the TGI in [7], in test [8], in test [9] and in [10] was above 100 µM throughout.

Turning to `COc1cc2ccccc2c2cc([N+](=O)[O-])oc12`, the TGI in test [1] was 4.54 µM; in test [2], 0.418 µM; in test [3] it was 14.7 µM; in [4] it was 0.293 µM; in [5] it was 23.7 µM; in [6], above 27.1 µM. Further, the TGI in [7] is 22.7 µM; in test [8] it was 2.36 µM; in test [9], 7.19 µM; in test [10], above 100 µM.

Regarding `Cc1oc2nc[nH]c(=O)c2c1C(=O)/C=C/c1ccc(Cl)cc1`, the GI50 in test [1] is 1.47 µM; in [2], 2.13 µM; in test [3], 1.66 µM; in test [4], 2.25 µM; in [5] it was 1.29 µM; in test [6], 3.17 µM. The GI50 in test [7] was 2.66 µM; in test [8] it was 1.9 µM; in test [9], 1.82 µM; in test [10] it was 3.06 µM. Besides, the TGI in test [1] is 7.18 µM; in [2], 8.29 µM; in test [3] it was 5.16 µM; in test [4], 5.85 µM; in [5], 3.51 µM; in test [6], 16.8 µM. Also, the TGI in test [7] worked out at 11.2 µM; in test [8], 4.22 µM; in [9], 10.8 µM; in test [10] it was 22.8 µM.

Turning to `CC(C)N(C(=O)C12C3C4C5C3C1(C(=O)N(C(C)C)C(C)C)C5(C#N)C42)C(C)C` (stereo not given), the TGI was above 100 µM in test [1]; above 100 µM in test [2]; 66.2 µM in test [3]; above 100 µM in [4]; above 100 µM in test [5]; above 100 µM in [6]. Further, the TGI in test [7], in test [8], in test [9] and in test [10] was above 100 µM in each case.

For the molecule `N#CNC(N)=NCCO`, the TGI in test [1], in test [2], in test [3], in test [4], in test [5] and in test [6] was above 100 µM each time. Also, the TGI in test [7], in test [8], in test [9] and in [10] was above 100 µM in each case.

With `CC(=O)Nc1ccc(-c2c3nc(c(-c4cc5ccccc5[n+](C)c4)c4ccc([nH]4)c(-c4ccc(NC(C)=O)cc4)c4nc(c(-c5cc6ccccc6[n+](C)c5)c5ccc2[nH]5)C=C4)C=C3)cc1`, the GI50 in test [1] was 23.9 µM; in test [2], 16.9 µM; in test [3] it was 21.6 µM; in test [4], 21.8 µM; in [5], above 50 µM; in [6], 35 µM. Besides, the GI50 in test [7] was 8.6 µM; in [8], 12.9 µM; in test [9], 13.7 µM; in [10], 4.81 µM. Moreover, the TGI in [1], in test [2], in test [3], in test [4], in test [5] and in test [6] was above 50 µM throughout. Also, the TGI is 35.4 µM in [7], 26.7 µM in [8], above 50 µM in [9] and 29.7 µM in [10].

Turning to `O=C1c2ccccc2NC(c2cc(Cl)cc(Cl)c2O)N1CCc1ccccn1` (stereo not given), the TGI in test [1], in test [2], in [3], in test [4], in test [5] and in test [6] was above 100 µM each time. The TGI in test [7], in test [8], in [9] and in test [10] was above 100 µM throughout.

In the case of `NC(C/[N+]([O-])=N/O)C(=O)O` (stereo not given), the GI50 in test [1] was > 91.7 µM and 71.4 µM and 33.4 µM; in [2] it was 62.1 µM; in [3], > 43.8 µM and 46.5 µM and 18 µM; in test [4] it was 1.9 µM and 8.31 µM and 1.46 µM; in test [5] it was 3.65 µM and 6.69 µM and 1.8 µM; in test [6] it was 6.55 µM and 2.88 µM and 5.56 µM. Besides, the GI50 in test [7] was 0.24 µM; in test [8], 21.6 µM and 69.7 µM and 17.4 µM; in [9], 0.107 µM and 0.967 µM and 0.348 µM; in test [10], 16.6 µM and 32.2 µM and 4.52 µM. Also, the TGI in [1] is > 100 µM and 209 µM; in test [2], above 487 µM; in test [3], above 500 µM; in test [4], > 42.7 µM and > 100 µM and 114 µM; in test [5], > 100 µM and 329 µM; in [6] it was above 482 µM. The TGI was > 100 µM and 67.9 µM in test [7]; > 62.7 µM and > 100 µM and 256 µM in test [8]; > 24.7 µM and > 100 µM and 256 µM in test [9]; > 100 µM and 102 µM in test [10].

Consider `CC1(C)CCC[C@@]2(C)C1C[C@H](O)[C@@]1(C)O[C@@](C)([C@H](O)CO)CCC21` (stereo not given in full), for which the TGI was 70.7 µM in [1]; above 100 µM in test [2]; 45.2 µM in test [3]; 44 µM in test [4]; above 100 µM in test [5]; above 100 µM in test [6]. In addition, the TGI is above 100 µM in test [7], 56.5 µM in test [8], 70.6 µM in [9] and above 100 µM in [10].

With `O=C(c1ccccc1)C(c1ccccc1)C1(O)C(=O)Nc2ccccc21` (stereo not given), the TGI in test [1], in test [2], in [3], in test [4], in [5] and in [6] was above 100 µM in each case. Besides, the TGI in [7], in [8], in test [9] and in [10] was above 100 µM each time.

For the molecule `COc1c(C2=NC(C(C)C)CO2)ccc2ccccc12` (stereo not given), the TGI was above 100 µM in [1]; above 100 µM in test [2]; 65.6 µM in test [3]; 36.3 µM in [4]; above 100 µM in test [5]; above 100 µM in test [6]. In addition, the TGI in test [7], in test [8], in [9] and in test [10] was above 100 µM each time.

As for `Cc1nc2ccccc2c(=O)n1/N=C(\N=Nc1cc(Cl)ccc1Cl)c1cccc(-c2ccco2)c1`, the TGI was 99.5 µM in [1]; above 100 µM in [2]; above 100 µM in [3]; above 100 µM in test [4]; above 100 µM in [5]; above 100 µM in test [6]. For the same molecule, the TGI in test [7], in test [8], in [9] and in test [10] was above 100 µM each time.

Take `Cc1c(C(=O)CC(=O)C(=O)Nc2c(C(C)C)cccc2C(C)C)[n+](=O)c2ccccc2n1[O-]`: the TGI in [1] stood at 35.1 µM; in [2], 18.8 µM; in test [3], 15.4 µM; in test [4] it was 24.4 µM; in test [5], 8.43 µM; in [6] it was 25.2 µM. The TGI in test [7] came to 32.3 µM; in test [8], 15.2 µM; in test [9], 11.4 µM; in test [10], 43 µM.

Consider `CC(C)(C)[Si](C)(C)OCC1CCC(n2cnc3c(=O)[nH]cnc32)O1` (stereo not given), for which the TGI in [1], in test [2], in test [3], in test [4], in test [5] and in [6] was above 100 µM throughout. Also, the TGI in test [7], in [8], in [9] and in test [10] was above 100 µM each time.

On to `N#CCCN(CCC#N)C(=O)c1cccc(C(=O)N(CCC#N)CCC#N)c1`, for which the TGI in test [1] is above 100 µM; in [2], above 100 µM; in [3], above 85.1 µM; in test [4], above 100 µM; in test [5], above 100 µM; in [6], above 100 µM. Also, the TGI in test [7], in test [8], in test [9] and in test [10] was above 100 µM in each case.

Take `CCCCSN1C(=O)c2ccccc2C1=S`: the TGI was above 100 µM in test [1]; above 100 µM in [2]; 49.4 µM in [3]; above 100 µM in test [4]; above 100 µM in test [5]; above 100 µM in [6]. Further, the TGI in [7], in [8], in test [9] and in [10] was above 100 µM in each case.

On to `CN(Cc1cnc(N)nc1N)c1ccc(C(=O)O)cc1`, for which the GI50 in test [1], in test [2], in [3], in test [4], in test [5] and in test [6] was above 100 µM in each case. Moreover, the GI50 in [7], in test [8], in test [9] and in test [10] was above 100 µM each time. The TGI in test [1], in test [2], in [3], in test [4], in test [5] and in test [6] was above 100 µM each time. Further, the TGI in test [7], in test [8], in [9] and in test [10] was above 100 µM throughout.

(Values after PubChem BioAssay (NCI).)
